The assay deals with S-adenosylmethionine synthetase (MAT, cMAT) (Escherichia coli, UniProt P0A817). Nature of the assay: […]-methionine incorporation into AdoMet with purified enzyme. Format: biochemical.
S-adenosylmethionine synthetase (MAT, cMAT), sequence (P0A817 2-384): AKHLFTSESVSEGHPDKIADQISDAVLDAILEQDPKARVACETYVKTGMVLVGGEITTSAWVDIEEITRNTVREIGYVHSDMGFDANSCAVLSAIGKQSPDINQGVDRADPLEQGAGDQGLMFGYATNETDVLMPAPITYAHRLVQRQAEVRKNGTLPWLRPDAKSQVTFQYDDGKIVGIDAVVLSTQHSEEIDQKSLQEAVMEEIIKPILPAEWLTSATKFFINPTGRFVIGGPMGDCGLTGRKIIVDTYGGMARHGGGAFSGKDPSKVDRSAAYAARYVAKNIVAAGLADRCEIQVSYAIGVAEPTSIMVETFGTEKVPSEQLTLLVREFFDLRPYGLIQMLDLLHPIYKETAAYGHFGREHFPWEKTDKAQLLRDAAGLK

One may read the Ki as the dissociation constant of the complex between target and ligand, obtained from inhibition or displacement. For the compound `CCOc1ccccc1NC(=O)NCC(=O)NNC(=O)Nc1cc([N+](=O)[O-])ccc1C` [compound 1, 1-(3-(2-ethoxyphenyl)ureidoacetyl)-4-(2-methyl-5-nitrophenyl)semicarbazide], the inhibition constant Ki amounted to 1.9 ± 0.8 nM.

(Values after PMC2869451 (Journal of medicinal chemistry, 2009).)
